Reference: ChEMBL document CHEMBL1201861, “Genomics of Drug Sensitity in Cancer screening data, Wellcome Trust Sanger Institute”

Legend:
Assay type in all cases: functional, cell-based
SU-DHL-1 = assay: SANGER: Inhibition of human SU-DHL-1 cell growth in a cell viability assay.
NCI-H522 = assay: cells; settings: Homo sapiens;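 note: cell viability assay measuring growth inhibition of human NCI-H522 cells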
Description: SANGER: Inhibition of human NCI-H522 cell growth in a cell viability assay.

BEN = assay: cells; settings: Homo sapiens;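 note: growth inhibition of the BEN cell line, read out with a cell viability assay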
Description: SANGER: Inhibition of human BEN cell growth in a cell viability assay.

BFTC-909 = assay: cells; settings: Homo sapiens
Description: SANGER: Inhibition of human BFTC-909 cell growth in a cell viability assay.

RPMI-7951 = assay: cells; settings: Homo sapiens
Description: SANGER: Inhibition of human RPMI-7951 cell growth in a cell viability assay.

LoVo = assay: cells; settings: Homo sapiens;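 note: growth inhibition of human LoVo cells, read out with a cell viability assay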
Description: SANGER: Inhibition of human LoVo cell growth in a cell viability assay.

ME-180 = assay: cells; settings: Homo sapiens;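 note: cell viability assay measuring growth inhibition of ME-180 cells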
Description: SANGER: Inhibition of human ME-180 cell growth in a cell viability assay.

MDA-MB-361 = assay: cells; settings: Homo sapiens
NCI-H1963 = assay: cells; settings: Homo sapiens;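 note: cell growth inhibition of the human line, determined with a cell viability assay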
Description: SANGER: Inhibition of human NCI-H1963 cell growth in a cell viability assay.

SW1463 = assay: cells; settings: Homo sapiens;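 note: growth inhibition of SW1463 cells, determined with a cell viability assay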
Description: SANGER: Inhibition of human SW1463 cell growth in a cell viability assay.

NCI-H292 = assay: cells; settings: Homo sapiens;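 note: growth inhibition of NCI-H292 cells, read out with a cell viability assay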
Description: SANGER: Inhibition of human NCI-H292 cell growth in a cell viability assay.

MONO-MAC-6 = assay: cells; settings: Homo sapiens;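 note: cell viability assay measuring growth inhibition of human MONO-MAC-6 cells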
Description: SANGER: Inhibition of human MONO-MAC-6 cell growth in a cell viability assay.

SUP-T1 = assay: cells; settings: Homo sapiens;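 note: growth inhibition of human SUP-T1 cells, read out as cell viability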
Description: SANGER: Inhibition of human SUP-T1 cell growth in a cell viability assay.

639-V = assay: cells; settings: Homo sapiens;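 note: growth inhibition of 639-V cells, read out with a cell viability assay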
Description: SANGER: Inhibition of human 639-V cell growth in a cell viability assay.

NCI-H2087 = assay: cells; settings: Homo sapiens;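 note: growth inhibition determined with a cell viability readout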
Description: SANGER: Inhibition of human NCI-H2087 cell growth in a cell viability assay.

5637 = assay: cells; settings: Homo sapiens
Description: SANGER: Inhibition of human 5637 cell growth in a cell viability assay.

PC-14 = assay: cells; settings: Homo sapiens;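 note: cell viability assay measuring inhibition of PC-14 cell growth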
Description: SANGER: Inhibition of human PC-14 cell growth in a cell viability assay.

A 172 = assay: cells; settings: Homo sapiens;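 note: growth inhibition of A172 cells, measured with a cell viability readout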
Description: SANGER: Inhibition of human A172 cell growth in a cell viability assay.

NCI-H1437 = assay: cells; settings: Homo sapiens;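 note: growth inhibition of human NCI-H1437 cells, read out by a cell viability assay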
Description: SANGER: Inhibition of human NCI-H1437 cell growth in a cell viability assay.

SW837 = assay: cells; settings: Homo sapiens;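 note: growth inhibition of SW837 cells, determined with a cell viability assay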
Description: SANGER: Inhibition of human SW837 cell growth in a cell viability assay.

KP-N-YN = assay: cells; settings: Homo sapiens;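 note: growth inhibition of KP-N-YN cells, read out with a cell viability assay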
Description: SANGER: Inhibition of human KP-N-YN cell growth in a cell viability assay.

KYSE-70 cell line = assay: cells; settings: Homo sapiens;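 note: cell viability assay read-out, with IC50 expressing suppression of KYSE-70 cell growth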
Description: SANGER: Inhibition of human KYSE-70 cell growth in a cell viability assay.

IMR-5 = assay: cells; settings: Homo sapiens;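 note: growth inhibition of human IMR-5 cells, read out with a cell viability assay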
Description: SANGER: Inhibition of human IMR-5 cell growth in a cell viability assay.

8505C = assay: cells; settings: Homo sapiens
Description: SANGER: Inhibition of human 8505C cell growth in a cell viability assay.

RD = assay: cells; settings: Homo sapiens
Description: SANGER: Inhibition of human RD cell growth in a cell viability assay.

MFE-280 = assay: cells; settings: Homo sapiens;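 note: growth inhibition of MFE-280 cells, determined with a cell viability readout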
Description: SANGER: Inhibition of human MFE-280 cell growth in a cell viability assay.

KYSE-180 = assay: cells; settings: Homo sapiens;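 note: growth inhibition of KYSE-180 cells, read out with a cell viability assay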
Description: SANGER: Inhibition of human KYSE-180 cell growth in a cell viability assay.

MDA-MB-415 = assay: cells; settings: Homo sapiens
NCI-H1703 = assay: cells; settings: Homo sapiens;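 note: growth inhibition of NCI-H1703 cells, read out via a cell viability assay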
Description: SANGER: Inhibition of human NCI-H1703 cell growth in a cell viability assay.

NCI-H810 = assay: cells; settings: Homo sapiens;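 note: IC50 reflects inhibition of cancer cell line growth, read out with a cell viability assay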
Description: SANGER: Inhibition of human NCI-H810 cell growth in a cell viability assay.

LCLC-103H cell line = assay: cells; settings: Homo sapiens
Description: SANGER: Inhibition of human LCLC-103H cell growth in a cell viability assay.

HCC1395 = assay: cells; settings: Homo sapiens;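 note: growth inhibition of HCC1395 cells, read out by a cell viability assay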
Description: SANGER: Inhibition of human HCC1395 cell growth in a cell viability assay.

SW-620 = assay: cells; settings: Homo sapiens;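 note: growth inhibition of human SW-620 cells, measured by a cell viability assay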
Description: SANGER: Inhibition of human SW620 cell growth in a cell viability assay.

Calu-3 = assay: cells; settings: Homo sapiens;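 note: growth inhibition of human Calu-3 cells, determined with a cell viability assay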
Description: SANGER: Inhibition of human Calu-3 cell growth in a cell viability assay.

KARPAS-422 = assay: cells; settings: Homo sapiens
Description: SANGER: Inhibition of human KARPAS-422 cell growth in a cell viability assay.

SK-LU-1 = assay: cells; settings: Homo sapiens;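 note: cell viability assay measuring growth inhibition of human SK-LU-1 cells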
Description: SANGER: Inhibition of human SK-LU-1 cell growth in a cell viability assay.

BOKU = assay: cells; settings: Homo sapiens;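 note: growth inhibition of the human BOKU cell line, read out by a cell viability assay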
Description: SANGER: Inhibition of human BOKU cell growth in a cell viability assay.

OE33 = assay: cells; settings: Homo sapiens;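 note: growth inhibition of human OE33 cells, measured by a cell viability assay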
Description: SANGER: Inhibition of human OE33 cell growth in a cell viability assay.

AGS = assay: cells; settings: Homo sapiens;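 note: growth inhibition of AGS cells, determined with a cell viability assay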
Description: SANGER: Inhibition of human AGS cell growth in a cell viability assay.

NCI-H2452 = assay: cells; settings: Homo sapiens;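 note: growth inhibition of NCI-H2452 cells, read out with a cell viability assay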
Description: SANGER: Inhibition of human NCI-H2452 cell growth in a cell viability assay.

ABC-1 = assay: cells; settings: Homo sapiens;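 note: growth inhibition of human ABC-1 cells, read out by a cell viability assay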
Description: SANGER: Inhibition of human ABC-1 cell growth in a cell viability assay.

EFO-27 = assay: cells; settings: Homo sapiens;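 note: growth inhibition of EFO-27 cells, read out with a cell viability assay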
Description: SANGER: Inhibition of human EFO-27 cell growth in a cell viability assay.

IM-9 = assay: SANGER: Inhibition of human IM-9 cell growth in a cell viability assay.
TYK-nu = assay: cells; settings: Homo sapiens;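 note: growth inhibition of human TYK-nu cells, read out by a cell viability assay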
Description: SANGER: Inhibition of human TYK-nu cell growth in a cell viability assay.

RT-112 = assay: cells; settings: Homo sapiens
Description: SANGER: Inhibition of human RT-112 cell growth in a cell viability assay.

NCI-H2122 = assay: cells; settings: Homo sapiens;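 note: growth inhibition of the cells, read out with a cell viability assay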
Description: SANGER: Inhibition of human NCI-H2122 cell growth in a cell viability assay.

HT55 = assay: cells; settings: Homo sapiens;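 note: cell viability readout measuring growth inhibition of human HT55 cells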
Description: SANGER: Inhibition of human HT55 cell growth in a cell viability assay.

D-392MG = assay: cells; settings: Homo sapiens
Ca9-22 = assay: cells; settings: Homo sapiens;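 note: growth inhibition of Ca9-22 cells, read out with a cell viability assay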
Description: SANGER: Inhibition of human Ca9-22 cell growth in a cell viability assay.

HO-1-N-1 = assay: cells; settings: Homo sapiens;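 note: growth inhibition of human HO-1-N-1 cells, read out with a cell viability assay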
Description: SANGER: Inhibition of human HO-1-N-1 cell growth in a cell viability assay.

SCC-4 = assay: cells; settings: Homo sapiens;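 note: growth inhibition of human SCC-4 cells, read out as cell viability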
Description: SANGER: Inhibition of human SCC-4 cell growth in a cell viability assay.

LP-1 = assay: cells; settings: Homo sapiens;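 note: growth inhibition of human LP-1 cells, with the read-out taken from a cell viability assay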
Description: SANGER: Inhibition of human LP-1 cell growth in a cell viability assay.

BT-20 = assay: cells; settings: Homo sapiens;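 note: cell viability assay measuring suppression of growth in human BT-20 cells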
Description: SANGER: Inhibition of human BT-20 cell growth in a cell viability assay.

LU-165 = assay: cells; settings: Homo sapiens
Description: SANGER: Inhibition of human LU-165 cell growth in a cell viability assay.

MKN-28 = assay: cells; settings: Homo sapiens;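 note: cell viability assay read-out, IC50 reflects suppression of growth of human MKN-28 cells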
Description: SANGER: Inhibition of human MKN28 cell growth in a cell viability assay.

HPAF-II = assay: cells; settings: Homo sapiens;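 note: growth inhibition of HPAF-II cells, read out with a cell viability assay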
Description: SANGER: Inhibition of human HPAF-II cell growth in a cell viability assay.

NCI-H358 = assay: cells; settings: Homo sapiens;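 note: growth inhibition of NCI-H358 human cells, read out with a cell viability assay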
Description: SANGER: Inhibition of human NCI-H358 cell growth in a cell viability assay.

SF-295 = assay: cells; settings: Homo sapiens;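 note: growth inhibition of SF-295 cells, read out with a cell viability assay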
Description: SANGER: Inhibition of human SF295 cell growth in a cell viability assay.

NCI-H1755 = assay: cells; settings: Homo sapiens;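 note: cell viability readout used to measure growth inhibition of NCI-H1755 cells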
Description: SANGER: Inhibition of human NCI-H1755 cell growth in a cell viability assay.

SW948 = assay: cells; settings: Homo sapiens;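 note: growth inhibition of SW948 cells, read out with a cell viability assay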
Description: SANGER: Inhibition of human SW948 cell growth in a cell viability assay.

NCI-H719 = assay: cells; settings: Homo sapiens;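 note: growth inhibition of the cultured cell line, read out with a viability assay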
Description: SANGER: Inhibition of human NCI-H719 cell growth in a cell viability assay.

D-542MG = assay: cells; settings: Homo sapiens
Description: SANGER: Inhibition of human D-542MG cell growth in a cell viability assay.

UACC-62 = assay: cells; settings: Homo sapiens;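 note: growth inhibition of human UACC-62 cells, read out by a cell viability assay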
Description: SANGER: Inhibition of human UACC-62 cell growth in a cell viability assay.

Question: With `N#C/C(=C1/Nc2ccccc2S1)c1ccnc(NCCc2cccnc2)n1` as the compound, how does the IC50 (SU-DHL-1) read?
Answer: > 8 µM

Question: And the IC50 (NCI-H522)?
Answer: 4.93 µM

Question: And the IC50 (BEN)?
Answer: > 8 µM

Question: And the IC50 (BFTC-909)?
Answer: > 8 µM

Question: What about the IC50 (RPMI-7951) of the same compound?
Answer: > 8 µM

Question: What about the IC50 (LoVo) of the same compound?
Answer: 2.7 µM

Question: What about the IC50 (ME-180) of the same compound?
Answer: > 8 µM

Question: What about the IC50 (MDA-MB-361) of the same compound?
Answer: 6.49 µM

Question: What about the IC50 (NCI-H1963) of the same compound?
Answer: > 8 µM

Question: And the IC50 (SW1463)?
Answer: > 8 µM

Question: What about the IC50 (NCI-H292) of the same compound?
Answer: > 8 µM

Question: And the IC50 (MONO-MAC-6)?
Answer: > 8 µM

Question: What about the IC50 (SUP-T1) of the same compound?
Answer: > 8 µM

Question: And the IC50 (639-V)?
Answer: 4.84 µM

Question: And the IC50 (NCI-H2087)?
Answer: > 8 µM

Question: What about the IC50 5637 of the same compound?
Answer: > 8 µM

Question: And the IC50 (PC-14)?
Answer: 3.62 µM

Question: And the IC50 (A 172)?
Answer: 2.16 µM

Question: What about the IC50 (NCI-H1437) of the same compound?
Answer: 4.15 µM

Question: And the IC50 (SW837)?
Answer: 5.24 µM

Question: What about the IC50 (KP-N-YN) of the same compound?
Answer: > 8 µM

Question: And the IC50 (KYSE-70 cell line)?
Answer: 4.06 µM

Question: And the IC50 (IMR-5)?
Answer: > 8 µM

Question: And the IC50 (8505C)?
Answer: 2.9 µM

Question: What about the IC50 (RD) of the same compound?
Answer: > 8 µM

Question: What about the IC50 (MFE-280) of the same compound?
Answer: > 8 µM

Question: And the IC50 (KYSE-180)?
Answer: > 8 µM

Question: What about the IC50 (MDA-MB-415) of the same compound?
Answer: > 8 µM

Question: And the IC50 (NCI-H1703)?
Answer: > 8 µM

Question: What about the IC50 (NCI-H810) of the same compound?
Answer: 5.34 µM

Question: What about the IC50 (LCLC-103H cell line) of the same compound?
Answer: > 8 µM

Question: And the IC50 (HCC1395)?
Answer: > 8 µM

Question: And the IC50 (SW-620)?
Answer: > 8 µM

Question: What about the IC50 (Calu-3) of the same compound?
Answer: > 8 µM

Question: What about the IC50 (KARPAS-422) of the same compound?
Answer: > 8 µM

Question: And the IC50 (SK-LU-1)?
Answer: 4.64 µM

Question: What about the IC50 (BOKU) of the same compound?
Answer: > 8 µM

Question: What about the IC50 (OE33) of the same compound?
Answer: > 8 µM

Question: And the IC50 (AGS)?
Answer: > 8 µM

Question: And the IC50 (NCI-H2452)?
Answer: > 8 µM

Question: What about the IC50 (ABC-1) of the same compound?
Answer: > 8 µM

Question: And the IC50 (EFO-27)?
Answer: > 8 µM

Question: What about the IC50 (IM-9) of the same compound?
Answer: > 8 µM

Question: And the IC50 (TYK-nu)?
Answer: 1.75 µM

Question: And the IC50 (RT-112)?
Answer: > 8 µM

Question: And the IC50 (NCI-H2122)?
Answer: 0.672 µM

Question: And the IC50 (HT55)?
Answer: > 8 µM

Question: And the IC50 (D-392MG)?
Answer: > 8 µM

Question: What about the IC50 (Ca9-22) of the same compound?
Answer: > 8 µM

Question: And the IC50 (HO-1-N-1)?
Answer: > 8 µM

Question: And the IC50 (SCC-4)?
Answer: > 8 µM

Question: What about the IC50 (LP-1) of the same compound?
Answer: > 8 µM

Question: What about the IC50 (BT-20) of the same compound?
Answer: > 8 µM

Question: And the IC50 (LU-165)?
Answer: > 8 µM

Question: What about the IC50 (MKN-28) of the same compound?
Answer: > 8 µM

Question: And the IC50 (HPAF-II)?
Answer: > 8 µM

Question: What about the IC50 (NCI-H358) of the same compound?
Answer: 1.9 µM

Question: What about the IC50 (SF-295) of the same compound?
Answer: 3.04 µM

Question: What about the IC50 (NCI-H1755) of the same compound?
Answer: > 8 µM

Question: What about the IC50 (SW948) of the same compound?
Answer: > 8 µM

Question: And the IC50 (NCI-H719)?
Answer: > 8 µM

Question: What about the IC50 (D-542MG) of the same compound?
Answer: > 8 µM

Question: And the IC50 (UACC-62)?
Answer: > 8 µM

Question: Which results are given for `C/C(O)=C(\C#N)C(=O)Nc1cc(Br)ccc1Br`?
Answer: IC50 (SU-DHL-1): > 16 µM; IC50 (NCI-H522): > 16 µM; IC50 (BEN): > 16 µM; IC50 (BFTC-909): > 16 µM; IC50 (RPMI-7951): > 16 µM; IC50 (LoVo): > 16 µM; IC50 (ME-180): > 16 µM; IC50 (MDA-MB-361): > 16 µM; IC50 (NCI-H1963): > 16 µM; IC50 (SW1463): > 16 µM; IC50 (NCI-H292): > 16 µM; IC50 (MONO-MAC-6): > 16 µM; IC50 (SUP-T1): > 16 µM; IC50 (639-V): > 16 µM; IC50 (NCI-H2087): > 16 µM; IC50 5637: > 16 µM; IC50 (PC-14): > 16 µM; IC50 (A 172): > 16 µM; IC50 (NCI-H1437): > 16 µM; IC50 (SW837): > 16 µM; IC50 (KP-N-YN): > 16 µM; IC50 (KYSE-70 cell line): > 16 µM; IC50 (IMR-5): > 16 µM; IC50 (8505C): > 16 µM; IC50 (RD): > 16 µM; IC50 (MFE-280): > 16 µM; IC50 (KYSE-180): > 16 µM; IC50 (MDA-MB-415): > 16 µM; IC50 (NCI-H1703): > 16 µM; IC50 (NCI-H810): > 16 µM; IC50 (LCLC-103H cell line): > 16 µM; IC50 (HCC1395): > 16 µM; IC50 (SW-620): > 16 µM; IC50 (Calu-3): > 16 µM; IC50 (KARPAS-422): > 16 µM; IC50 (SK-LU-1): > 16 µM; IC50 (BOKU): > 16 µM; IC50 (OE33): > 16 µM; IC50 (AGS): > 16 µM; IC50 (NCI-H2452): > 16 µM; IC50 (ABC-1): > 16 µM; IC50 (EFO-27): > 16 µM; IC50 (IM-9): > 16 µM; IC50 (TYK-nu): > 16 µM; IC50 (RT-112): > 16 µM; IC50 (NCI-H2122): > 16 µM; IC50 (HT55): > 16 µM; IC50 (D-392MG): > 16 µM; IC50 (Ca9-22): > 16 µM; IC50 (HO-1-N-1): > 16 µM; IC50 (SCC-4): > 16 µM; IC50 (LP-1): > 16 µM; IC50 (BT-20): > 16 µM; IC50 (LU-165): > 16 µM; IC50 (MKN-28): > 16 µM; IC50 (HPAF-II): > 16 µM; IC50 (NCI-H358): > 16 µM; IC50 (SF-295): > 16 µM; IC50 (NCI-H1755): > 16 µM; IC50 (SW948): > 16 µM; IC50 (NCI-H719): > 16 µM; IC50 (D-542MG): > 16 µM; IC50 (UACC-62): > 16 µM
